The target in assay [1] is RAC-gamma serine/threonine-protein kinase (Homo sapiens) (UniProt Q9Y243). Briefly: Inhibition of human AKT3 at 500 nM by HotSpot assay relative to control.
For assay [2], the target named is T1, cGMP-dependent protein kinase 1 (Homo sapiens) (UniProt Q13976).
T1 sequence (whole entry): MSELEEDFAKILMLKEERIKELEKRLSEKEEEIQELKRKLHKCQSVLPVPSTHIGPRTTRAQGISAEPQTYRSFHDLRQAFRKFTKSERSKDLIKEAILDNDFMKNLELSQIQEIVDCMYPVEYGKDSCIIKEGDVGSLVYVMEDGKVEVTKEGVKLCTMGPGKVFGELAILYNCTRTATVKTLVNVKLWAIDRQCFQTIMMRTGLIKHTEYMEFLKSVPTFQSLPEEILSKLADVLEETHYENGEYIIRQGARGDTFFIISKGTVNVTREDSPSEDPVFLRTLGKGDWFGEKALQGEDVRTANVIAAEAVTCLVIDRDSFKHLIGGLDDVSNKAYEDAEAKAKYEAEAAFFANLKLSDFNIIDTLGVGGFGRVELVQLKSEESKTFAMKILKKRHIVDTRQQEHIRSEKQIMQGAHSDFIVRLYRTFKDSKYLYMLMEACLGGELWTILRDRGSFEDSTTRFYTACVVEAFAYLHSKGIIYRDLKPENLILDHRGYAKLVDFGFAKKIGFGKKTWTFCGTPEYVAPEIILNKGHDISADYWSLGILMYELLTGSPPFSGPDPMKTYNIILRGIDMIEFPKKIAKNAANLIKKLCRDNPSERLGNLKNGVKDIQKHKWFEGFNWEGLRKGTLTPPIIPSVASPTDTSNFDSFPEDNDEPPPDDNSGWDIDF
Nature of the assay: Inhibition of human PKG1a at 500 nM by HotSpot assay relative to control.

For assay [3], the target named is T2, Serine/threonine-protein kinase Nek11 (Homo sapiens) (UniProt Q8NG66).
T2 sequence (whole entry): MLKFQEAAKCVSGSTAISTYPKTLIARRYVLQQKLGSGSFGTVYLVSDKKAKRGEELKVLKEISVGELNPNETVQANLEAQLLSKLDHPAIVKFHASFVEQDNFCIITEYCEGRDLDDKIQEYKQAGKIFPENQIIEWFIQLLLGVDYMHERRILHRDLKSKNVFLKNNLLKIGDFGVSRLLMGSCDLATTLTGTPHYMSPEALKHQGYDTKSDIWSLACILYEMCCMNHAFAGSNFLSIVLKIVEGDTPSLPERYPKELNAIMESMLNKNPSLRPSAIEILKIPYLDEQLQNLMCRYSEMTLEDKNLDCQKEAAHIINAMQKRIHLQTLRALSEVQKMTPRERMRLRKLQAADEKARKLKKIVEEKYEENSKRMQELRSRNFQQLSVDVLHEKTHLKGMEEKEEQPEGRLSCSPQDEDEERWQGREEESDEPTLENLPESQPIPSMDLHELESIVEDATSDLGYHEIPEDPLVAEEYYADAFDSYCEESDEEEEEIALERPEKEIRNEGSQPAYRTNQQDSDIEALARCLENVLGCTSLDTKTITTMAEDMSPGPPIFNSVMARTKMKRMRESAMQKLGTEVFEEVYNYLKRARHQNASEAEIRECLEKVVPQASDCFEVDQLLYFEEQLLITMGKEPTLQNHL
Nature of the assay: Inhibition of human NEK11 at 500 nM by HotSpot assay relative to control.

Assay [4] concerns the target T3, Serine/threonine-protein kinase Sgk3 (Homo sapiens) (UniProt Q96BR1).
T3 sequence (whole entry): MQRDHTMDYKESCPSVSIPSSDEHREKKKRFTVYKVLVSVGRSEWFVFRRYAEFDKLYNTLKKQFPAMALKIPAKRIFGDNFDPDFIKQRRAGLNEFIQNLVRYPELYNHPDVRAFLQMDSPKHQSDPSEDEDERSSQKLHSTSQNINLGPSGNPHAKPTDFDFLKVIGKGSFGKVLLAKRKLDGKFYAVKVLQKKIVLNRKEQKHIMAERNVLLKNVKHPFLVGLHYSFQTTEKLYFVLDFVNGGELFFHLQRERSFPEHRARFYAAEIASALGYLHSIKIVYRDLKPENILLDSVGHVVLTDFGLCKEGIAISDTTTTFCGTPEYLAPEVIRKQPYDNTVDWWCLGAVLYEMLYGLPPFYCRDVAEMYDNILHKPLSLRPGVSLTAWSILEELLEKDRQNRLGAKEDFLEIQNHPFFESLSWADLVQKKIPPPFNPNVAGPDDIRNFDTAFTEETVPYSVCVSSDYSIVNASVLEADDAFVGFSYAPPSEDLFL
Briefly: Inhibition of human SGKL at 500 nM by HotSpot assay relative to control.

For assay [5], the target named is T4, Serine/threonine-protein kinase BRSK1 (Homo sapiens) (UniProt Q8TDC3).
T4 sequence (whole entry): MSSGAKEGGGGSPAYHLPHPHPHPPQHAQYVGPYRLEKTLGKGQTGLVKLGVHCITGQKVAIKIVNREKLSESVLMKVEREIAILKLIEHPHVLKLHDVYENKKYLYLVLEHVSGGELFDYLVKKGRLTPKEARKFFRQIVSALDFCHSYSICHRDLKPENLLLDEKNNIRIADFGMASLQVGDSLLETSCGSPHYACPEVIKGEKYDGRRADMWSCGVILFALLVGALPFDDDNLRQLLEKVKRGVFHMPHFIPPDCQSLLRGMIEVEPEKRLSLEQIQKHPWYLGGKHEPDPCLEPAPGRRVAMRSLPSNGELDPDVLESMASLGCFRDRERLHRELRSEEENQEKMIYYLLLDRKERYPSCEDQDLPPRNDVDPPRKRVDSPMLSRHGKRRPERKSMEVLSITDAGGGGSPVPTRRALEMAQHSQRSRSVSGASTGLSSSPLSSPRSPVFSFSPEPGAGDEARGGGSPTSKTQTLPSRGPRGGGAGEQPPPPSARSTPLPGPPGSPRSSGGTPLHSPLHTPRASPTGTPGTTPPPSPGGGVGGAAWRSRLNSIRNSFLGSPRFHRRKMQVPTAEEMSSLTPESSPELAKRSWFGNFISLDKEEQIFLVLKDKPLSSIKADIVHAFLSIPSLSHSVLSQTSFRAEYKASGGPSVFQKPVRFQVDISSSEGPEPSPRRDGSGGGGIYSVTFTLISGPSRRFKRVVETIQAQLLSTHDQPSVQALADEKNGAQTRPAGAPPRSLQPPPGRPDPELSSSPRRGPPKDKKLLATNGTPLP
Briefly: Inhibition of human BRSK1 at 500 nM by HotSpot assay relative to control.

The target of assay [6] is Ephrin type-B receptor 4 (Homo sapiens) (UniProt P54760). Briefly: Inhibition of human EPHB4 at 500 nM by HotSpot assay relative to control.
Chain of Ephrin type-B receptor 4 (Homo sapiens) (P54760 whole entry): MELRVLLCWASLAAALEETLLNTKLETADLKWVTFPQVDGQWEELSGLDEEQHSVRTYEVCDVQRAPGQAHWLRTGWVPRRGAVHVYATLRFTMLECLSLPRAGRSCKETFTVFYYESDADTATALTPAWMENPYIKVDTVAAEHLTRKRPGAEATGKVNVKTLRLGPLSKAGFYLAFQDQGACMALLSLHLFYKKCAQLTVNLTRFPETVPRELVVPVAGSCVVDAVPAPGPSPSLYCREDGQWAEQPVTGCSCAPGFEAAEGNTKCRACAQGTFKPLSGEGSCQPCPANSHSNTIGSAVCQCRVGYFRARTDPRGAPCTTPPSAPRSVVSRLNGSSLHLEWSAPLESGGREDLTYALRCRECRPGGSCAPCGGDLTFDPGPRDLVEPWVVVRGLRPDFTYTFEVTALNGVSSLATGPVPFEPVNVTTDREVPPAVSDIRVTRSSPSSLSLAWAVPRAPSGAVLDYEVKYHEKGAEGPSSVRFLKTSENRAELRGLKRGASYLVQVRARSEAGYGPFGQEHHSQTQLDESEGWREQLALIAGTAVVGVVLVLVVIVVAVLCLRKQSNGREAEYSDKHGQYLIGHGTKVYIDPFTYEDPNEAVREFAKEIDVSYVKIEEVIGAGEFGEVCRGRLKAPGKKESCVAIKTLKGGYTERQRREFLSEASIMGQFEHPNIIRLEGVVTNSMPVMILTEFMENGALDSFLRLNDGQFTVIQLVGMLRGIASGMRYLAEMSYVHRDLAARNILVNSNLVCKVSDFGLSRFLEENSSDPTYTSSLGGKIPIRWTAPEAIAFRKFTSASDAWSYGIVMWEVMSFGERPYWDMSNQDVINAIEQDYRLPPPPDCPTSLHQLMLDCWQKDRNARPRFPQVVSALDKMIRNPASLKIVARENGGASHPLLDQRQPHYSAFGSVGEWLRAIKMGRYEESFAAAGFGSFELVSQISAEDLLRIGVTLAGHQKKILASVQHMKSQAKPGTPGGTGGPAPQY
Assay [7] deals with Macrophage-stimulating protein receptor (Homo sapiens) (UniProt Q04912). Briefly: Inhibition of human MST1R at 500 nM by HotSpot assay relative to control.
Chain of Macrophage-stimulating protein receptor (Homo sapiens) (Q04912 25-304 limits assumed): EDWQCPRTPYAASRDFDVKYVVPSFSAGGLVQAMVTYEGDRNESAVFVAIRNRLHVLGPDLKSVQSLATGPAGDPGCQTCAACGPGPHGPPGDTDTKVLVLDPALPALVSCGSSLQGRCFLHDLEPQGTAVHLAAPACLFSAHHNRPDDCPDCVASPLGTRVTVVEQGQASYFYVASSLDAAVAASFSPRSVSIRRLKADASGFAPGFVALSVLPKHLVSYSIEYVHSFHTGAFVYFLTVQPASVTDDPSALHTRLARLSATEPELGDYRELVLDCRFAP
Chain of Macrophage-stimulating protein receptor (Homo sapiens) (Q04912 310-1400 limits assumed): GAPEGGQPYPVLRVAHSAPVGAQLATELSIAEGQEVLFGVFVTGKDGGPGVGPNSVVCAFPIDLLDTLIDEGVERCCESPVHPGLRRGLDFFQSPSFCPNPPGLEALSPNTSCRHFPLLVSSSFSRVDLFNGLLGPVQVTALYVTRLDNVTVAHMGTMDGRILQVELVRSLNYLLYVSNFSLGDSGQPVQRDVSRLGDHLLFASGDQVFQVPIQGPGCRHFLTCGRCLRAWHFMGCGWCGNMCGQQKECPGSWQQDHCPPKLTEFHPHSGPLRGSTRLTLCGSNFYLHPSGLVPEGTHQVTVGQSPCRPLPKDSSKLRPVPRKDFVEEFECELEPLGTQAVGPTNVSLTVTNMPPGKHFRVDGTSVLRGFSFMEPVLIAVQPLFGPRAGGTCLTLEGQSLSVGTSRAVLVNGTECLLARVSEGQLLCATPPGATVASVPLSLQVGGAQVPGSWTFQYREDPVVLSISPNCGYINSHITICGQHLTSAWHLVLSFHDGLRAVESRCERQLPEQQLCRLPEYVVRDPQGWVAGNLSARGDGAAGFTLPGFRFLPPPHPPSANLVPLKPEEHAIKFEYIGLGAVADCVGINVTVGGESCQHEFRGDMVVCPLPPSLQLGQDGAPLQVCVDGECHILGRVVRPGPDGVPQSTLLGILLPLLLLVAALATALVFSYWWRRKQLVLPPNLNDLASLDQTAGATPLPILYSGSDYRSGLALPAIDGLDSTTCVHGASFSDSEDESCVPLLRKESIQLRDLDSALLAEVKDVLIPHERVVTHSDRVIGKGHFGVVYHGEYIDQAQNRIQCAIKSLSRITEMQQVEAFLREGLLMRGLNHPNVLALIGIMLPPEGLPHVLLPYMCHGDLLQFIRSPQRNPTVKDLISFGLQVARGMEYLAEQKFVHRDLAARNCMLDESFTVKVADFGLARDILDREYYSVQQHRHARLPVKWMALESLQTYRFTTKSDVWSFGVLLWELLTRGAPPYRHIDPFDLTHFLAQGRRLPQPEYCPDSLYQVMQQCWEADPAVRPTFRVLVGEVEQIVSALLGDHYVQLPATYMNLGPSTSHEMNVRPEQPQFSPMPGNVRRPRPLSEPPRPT
The target in assay [8] is Activin receptor type-1-like (Homo sapiens) (UniProt P37023). Briefly: Inhibition of human ALK1 at 500 nM by HotSpot assay relative to control.
Chain of Activin receptor type-1-like (Homo sapiens) (P37023 whole entry): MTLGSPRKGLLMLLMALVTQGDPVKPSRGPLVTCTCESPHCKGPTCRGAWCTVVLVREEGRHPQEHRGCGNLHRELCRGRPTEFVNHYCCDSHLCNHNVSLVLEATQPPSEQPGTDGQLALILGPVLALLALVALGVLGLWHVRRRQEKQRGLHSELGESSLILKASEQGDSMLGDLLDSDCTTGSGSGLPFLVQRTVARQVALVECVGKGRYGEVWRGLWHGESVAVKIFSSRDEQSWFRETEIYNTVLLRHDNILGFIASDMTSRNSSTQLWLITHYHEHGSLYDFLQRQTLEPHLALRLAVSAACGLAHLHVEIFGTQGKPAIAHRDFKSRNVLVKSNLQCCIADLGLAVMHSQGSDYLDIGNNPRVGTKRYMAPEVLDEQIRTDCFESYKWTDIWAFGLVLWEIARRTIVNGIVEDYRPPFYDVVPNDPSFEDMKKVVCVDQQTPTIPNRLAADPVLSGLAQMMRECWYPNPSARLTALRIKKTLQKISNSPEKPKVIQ

Chain of RAC-gamma serine/threonine-protein kinase (Homo sapiens) (Q9Y243 whole entry): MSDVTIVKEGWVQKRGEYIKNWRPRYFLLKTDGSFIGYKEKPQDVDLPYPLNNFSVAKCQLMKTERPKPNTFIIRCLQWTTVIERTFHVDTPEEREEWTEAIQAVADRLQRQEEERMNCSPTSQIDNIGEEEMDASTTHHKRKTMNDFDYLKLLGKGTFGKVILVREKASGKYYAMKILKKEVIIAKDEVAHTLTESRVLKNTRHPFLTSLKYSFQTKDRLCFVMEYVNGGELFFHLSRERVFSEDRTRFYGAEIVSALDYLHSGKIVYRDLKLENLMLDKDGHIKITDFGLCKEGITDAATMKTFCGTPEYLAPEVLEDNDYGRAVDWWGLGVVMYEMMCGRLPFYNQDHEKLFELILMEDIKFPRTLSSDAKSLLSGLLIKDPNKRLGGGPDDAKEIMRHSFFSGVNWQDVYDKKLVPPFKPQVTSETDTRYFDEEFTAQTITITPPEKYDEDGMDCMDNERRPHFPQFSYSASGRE

The inhibition is the drop in the measured response relative to a control, in per cent. On to `Nc1n[nH]c2nnc(-c3c(-c4ccccc4)nn4ccccc34)cc12`, for which the inhibition stood at 2.52% in assay [1]; 6.39% in assay [2]; 4.86% in assay [3]; 9.81% in assay [4]; 1.41% in assay [5]; 1.54% in assay [6]. Moreover, the inhibition is -1.66% in assay [7] and -6.11% in assay [8].
Take `Oc1n[nH]c2nnc(-c3c(-c4ccccc4)nn4ccccc34)cc12`: the inhibition is 2.1% in assay [1]; -5.37% in assay [2]; -4.37% in assay [3]; 0.31% in assay [4]; -2.29% in assay [5]; 2.91% in assay [6]. Besides, the figures for the inhibition in assay [7] and in assay [8] were -6.32% and -0.63%, respectively.
